Source: patent US8884022B2, “Inhibition of bacterial biofilms with aryl carbamates” (North Carolina State University, priority 2010, dated 2014)
One block for each molecule: values may come before it.

Experiments:
[1] = system: VRE; experiment: Biofilm inhibition, crystal violet assay; format: cell-based, vancomycin-resistant Enterococcus faecium; conditions: 200 μM
Experimental: (§1) Procedure to Determine the Inhibitory Effect of Test Compounds.
(§2) Inhibition assays were performed by taking an overnight culture of bacterial strain and subculturing it at an OD600 of 0.01 into the medium. Stock solutions of predetermined concentrations of the test compound were then made in the medium. These stock solutions were aliquoted (100 μL) into the wells of the 96-well PVC microtiter plate. Sample plates were then wrapped in GLAD Press n'Seal® followed by an incubation under stationary conditions for 24 h at 37° C. After incubation, the medium was discarded from the wells and the plates were washed thoroughly with water. Plates were then stained with 100 μL of 0.1% solution of crystal violet (CV) and then incubated at ambient temperature for 30 min. Plates were washed with water again and the remaining stain was solubilized with 200 μL of 95% ethanol. A sample of 125 μL of solubilized CV stain from each well was transferred to the corresponding wells of a polystyrene microtiter dish. Biofilm inhibition was quantitated by measuring the OD540 of each well in which a negative control lane wherein no biofilm was formed served as a background and was subtracted out.

[2] = system: S. epidermidis; experiment: Biofilm inhibition, crystal violet assay; format: cell-based; conditions: 200 μM
Experimental: as §1, §2

[3] = system: E. coli; experiment: Biofilm inhibition, crystal violet assay; format: cell-based; conditions: for inhibition at 200 µM / IC50: Escherichia coli; for inhibition at 200 µM: read-out: % Inhibition of biofilm formation; for IC50: concentration that inhibits 50% of biofilm formation
Experimental: as §1, §2

[4] = system: R. salexigens; experiment: Biofilm inhibition, crystal violet assay; format: cell-based, Rhodospirillum salexigens; conditions: 200 μM
Experimental: as §1, §2

[5] = system: red blood cell (difibrinated sheep blood); experiment: Red blood cell hemolysis assay; format: cell-based; conditions: up to the highest concentration tested (1.2 mM)
Experimental: This was assessed using a red blood cell hemolysis assay using difibrinated sheep blood.
Red Blood Cell Hemolysis Assay.
Hemolysis assays were performed on mechanically difibrinated sheep blood (Hemostat Labs: DSB100). 1.5 mL of blood was placed into a microcentrifuge tube and centrifuged at 10000 rpm for ten minutes. The supernatant was removed and then the cells were resuspended with 1 mL of phosphate-buffered saline (PBS). The suspension was centrifuged, the supernatant was removed and cells resuspended two more times. The final cell suspension was then diluted tenfold. Test compound solutions were made in PBS in small culture tubes and then added to aliquots of the tenfold suspension dilution. PBS alone was used as a negative control and as a zero hemolysis marker whereas a 1% Triton X sample was used as a positive control and the 100% lysis marker. Samples were then placed in an incubator at 37° C. while being shaken at 200 rpm for one hour. After one hour, the samples were transferred to microcentrifuge tubes and then centrifuged at 10000 rpm for ten minutes. The resulting supernatant was diluted by a factor of 40 in distilled water. The absorbance of the supernatant was measured with a UV spectrometer at a 540 nm wavelength.

[6] = system: MRSA; experiment: Biofilm inhibition, crystal violet assay; format: cell-based, methicillin-resistant S. aureus; conditions: for inhibition at 200 µM / IC50: Staphylococcus aureus; for inhibition at 200 µM / IC50 / biofilm inhibition activity (in words): MRSA; for inhibition at 200 µM: read-out: % Inhibition of biofilm formation; for IC50: concentration that inhibits 50% of biofilm formation
Experimental: as §1, §2

[7] = system: MDRAB; experiment: Biofilm inhibition, crystal violet assay; format: cell-based, multi-drug resistant Acinetobacter baumannii; conditions: 200 μM
Experimental: as §1, §2

[8] = system: R. salexigens; conditions: reported by Yamada et al.; cited from earlier work
[9] = system: S. aureus strain ATCC 29740; experiment: Biofilm inhibition, crystal violet assay; format: cell-based; conditions: Staphylococcus aureus, ATCC29740; S. aureus ATCC 29740
Experimental: (§3) Given the potency of our lead compounds toward inhibiting MRSA biofilms, we next explored their activity against various other S. aureus strains. […] IC50 values were determined for each compound against each of the S. aureus strains.
as §1, §2

[10] = system: S. aureus strain ATCC 25923; experiment: Biofilm inhibition, crystal violet assay; format: cell-based; conditions: Staphylococcus aureus, ATCC25923; S. aureus ATCC 25923
Experimental: as §3, §1, §2

[11] = system: S. aureus strain ATCC 29213; experiment: Biofilm inhibition, crystal violet assay; format: cell-based; conditions: for IC50: Staphylococcus aureus, ATCC29213, S. aureus ATCC 29213; for biofilm inhibition activity (in words): 29213, 200 μM
Experimental: as §3, §1, §2

Compound: CCOC(=O)NCCc1ccccc1 [Compound 2d, ethyl N-(2-phenethyl) carbamate]
- % Inhibition of biofilm formation [1]: 80.2%
- % Inhibition of biofilm formation [2]: 63.1%
- % Inhibition of biofilm formation ([3]; 200 μM): 40.8%
- % Inhibition of biofilm formation [4]: 59.7%
- red blood cell lysis [5]: no red blood cell lysis
- % Inhibition of biofilm formation ([6]; 200 μM): 68.1%
- % Inhibition of biofilm formation [7]: 52.0%
- antibiofilm activity reported in the literature [8]: moderate antibiofilm activity

- IC50 [9]: 24.3 µM
- IC50 [10]: 71.9 µM
- IC50 [11]: 21.2 µM
- IC50 [6]: 49.8 µM
Compound: CC(C)[C@@H]1CC[C@@H](C)C[C@H]1OC(=O)NCCc1ccc(N)cc1 [Compound 8a, (1R,2S,5R)-2-isopropyl-5-methylcyclohexyl 4-aminophenethylcarbamate]
- red blood cell lysis [5]: no red blood cell lysis
- inhibition at 200 µM ([6]; 200 μM): > 90%

Compound: CC(C)[C@H]1CC[C@H](C)C[C@@H]1OC(=O)NCCc1ccccn1 [Compound 9k, (1S,2R,5S)-2-isopropyl-5-methylcyclohexyl 2-(pyridin-2-yl)ethylcarbamate]
- biofilm inhibition activity (in words) [11]: identical antibiofilm properties as their enantiomers
- biofilm inhibition activity (in words) ([6]; 200 μM): identical antibiofilm properties as their enantiomers
- melting point: 57 to 59 °C

- melting point: 135 to 139 °C
Compound: CC(C)CCC[C@@H](C)C1CCC2[C@@H]3CC=C4C[C@@H](OC(=O)NCCc5ccc(N)cc5)CC[C@]4(C)[C@H]3CC[C@]12C (stereo partly shown)

Compound: COC1CC(C)CCC1C(C)C (single isomer, unassigned; (-)) [(−)-menthol methyl ether, reference compound]
- biofilm inhibition activity (in words) [11]: completely inactive
- biofilm inhibition activity (in words) ([6]; 200 μM): completely inactive

- IC50 [3]: 34.6 µM
- IC50 [9]: 82.2 µM
- IC50 [10]: 19.7 µM
- IC50 [11]: 124 µM
- IC50 [6]: 4.87 µM
- melting point: 59 to 63 °C
Compound: CC(C)[C@@H]1CC[C@@H](C)C[C@H]1OC(=O)NCCc1ccccn1 [Compound 9a, (1R,2S,5R)-2-isopropyl-5-methylcyclohexyl 2-(pyridin-2-yl)ethylcarbamate]
- inhibition at 200 µM ([3]; 200 μM): > 80%
- red blood cell lysis [5]: no red blood cell lysis
- inhibition at 200 µM ([6]; 200 μM): > 90%

Compound: CC1CCC(C(C)C)C(O)C1 (single isomer, unassigned; (-)) [(−)-menthol, reference compound]
- biofilm inhibition activity (in words) [11]: completely inactive
- biofilm inhibition activity (in words) ([6]; 200 μM): completely inactive

- melting point: 142 to 145 °C
Compound: CC(C)CCC[C@@H](C)C1CCC2[C@@H]3CC=C4C[C@@H](OC(=O)N5CCc6ccccc65)CC[C@]4(C)[C@H]3CC[C@]12C (stereo partly shown)

- IC50 [3]: 28.3 µM
Compound: CC(C)[C@@H]1CC[C@@H](C)C[C@H]1OC(=O)NCCn1nccn1 [Compound 5a, (1R,2S,5R)-2-isopropyl-5-methylcyclohexyl 2-(2H-1,2,3-triazol-2-yl)ethylcarbamate]
- inhibition at 200 µM ([3]; 200 μM): > 80%
